Laboratory results: patent US9796958B2, “Bacterial growth enhancer” (Plant Bioscience Limited, priority 2005, dated 2017)

Experiments:
Type in all cases: cell-based
[1] = test system: L. casei; test: Delivery of lactoferrin-complexed 55Fe to bacteria in serum-SAPI; settings: 55Fe-complexed human lactoferrin, tannic acid 50 μg/ml, other compounds 100 μM, BF 2% v/v
Method: (§1) L. casei and E. coli were added at around 5×10^6 CFU/ml to triplicate 1 ml serum-SAPI medium containing the additions shown in Table 2, and 2×10^5 cpm/ml of ^55Fe-complexed human lactoferrin. Tannic acid was used at 50 μg/ml, the other compounds were all used at 100 μM, final concentration; BF was used at 2% v/v. Cultures were incubated as described in the legend to FIG. 2, and growth enumerated on MRS agar (L. casei) or Luria agar (E. coli). ^55Fe incorporation was determined by scintillation counting of triplicate washed bacteria cultures.

[2] = test system: E. coli; settings: 55Fe-complexed human lactoferrin, tannic acid 50 μg/ml, other compounds 100 μM, BF 2% v/v
Method: as §1

[3] = test system: LAB; test: LAB growth response to catecholamines in serum-based media; settings: serum-based media only

| Compound | 55Fe incorporation/ml of culture [1] | 55Fe incorporation/ml of culture [2] | Increase in LAB growth [3] |
| --- | --- | --- | --- |
| O=C(O)/C=C/c1ccc(O)c(O)c1 [Caffeic acid] | 29 | 11385 |  |
| O=C(/C=C/c1ccc(O)c(O)c1)O[C@@H]1C[C@](O)(C(=O)O)C[C@@H](O)[C@H]1O [Chlorogenic acid] | 28 | 7374 |  |
| NCCc1ccc(O)c(O)c1 [Dopamine] | 48 | 6815 | around 2 log-fold |
| NC[C@H](O)c1ccc(O)c(O)c1 [Noradrenaline] | 29 | 8542 | around 2 log-fold |
| O=C(OC[C@H]1O[C@@H](OC(=O)c2cc(O)c(O)c(OC(=O)c3cc(O)c(O)c(O)c3)c2)[C@H](OC(=O)c2cc(O)c(O)c(OC(=O)c3cc(O)c(O)c(O)c3)c2)[C@@H](OC(=O)c2cc(O)c(O)c(OC(=O)c3cc(O)c(O)c(O)c3)c2)[C@@H]1OC(=O)c1cc(O)c(O)c(OC(=O)c2cc(O)c(O)c(O)c2)c1)c1cc(O)c(O)c(OC(=O)c2cc(O)c(O)c(O)c2)c1 [Tannic acid] | 28 | 13952 |  |
| Catechin | 57 | 3931 |  |
